Assay results published in patent EP0101234A1, “Therapeutic agent” (The Boots Company PLC, priority 1982, dated 1984).
Counter-ions that a name gives are not always drawn. Like-named read-outs stand apart in the source and are kept apart here.

System: uptake systems for 5HT in the brain
Assay: in vivo inhibition of p-chloroamphetamine-induced depletion of brain 5HT
Design: species or system Charles River CD rats
Conditions: Rattus norvegicus, read-out: percentage inhibition of depletion (Ib)
Method: Once inside the neuron the depletor agent displaces the amine transmitter from its storage sites into the cytoplasm of the cell where it is metabolised by monoamine oxidase. […] The levels of the amine transmitter are preserved by pretreatment of the uptake sites with an uptake inhibitor. […] After 30 minutes a solution of p-chloroamphetamine in. distilled water was injected intraperitoneally at a dose of 5 mg/kg. After a further four hours the animals were sacrificed and the 5HT level in the brain determined fluorometrically.
The 5HT level in the brain was also determined in Control animals which received only vehicle solutions and for animals which received vehicle orally instead of the test compound followed by intraperitoneal injections of the depleting agent. These latter animals are referred to herein as depleted controls. The percentage inhibition. of depletion (Ib) was calculated using the formula

[1] = rats, 30 mg/kg orally, p-chloroamphetamine 5 mg/kg i.p. after 30 minutes, brain 5HT level after a further four hours

| SMILES | inhibition at 30 mg/kg [%] | inhibition at 30 mg/kg [1] [%] |
| --- | --- | --- |
| CN(C)CCCN1c2ccccc2CCc2ccc(Cl)cc21 [Clomipramine] | 8 | – |
| CN(C)CCC=C1c2ccccc2CSc2ccc(C#N)cc21 [Product of Example 1, 11-(3-dimethylaminopropylidene)-6,11-dihydrodibenzo(b,e)thiepin-2-carbonitrile hydrobromide] | – | 82 |
| CN(C)CCCN1c2ccccc2CCc2ccccc21 [Imipramine] | 18 | – |
| CN(C)CC/C=C1\c2ccccc2CSc2ccccc21 [Dothiepin] | – | 9 |
| CN(C)CCC=C1c2cc(C#N)ccc2CSc2ccccc21 [Product of Example A, 11-(3-Dimethyl-aminopropylidene)6,1i-dihydrodibenzo[b,e]thiepin-9-carbonitrile hydrobromide] | – | 0 |
